{"source": "patent US8404664B2", "about": "“Phosphonated Rifamycins and uses thereof for the prevention and treatment of bone and joint infections” (Targanta Therapeutics, Inc., priority 2005, dated 2013)", "key": {"S. aureus ATCC 13709 [1]": {"test_system": "S. aureus ATCC 13709", "assay": "Antibacterial susceptibility (MIC), NCCLS broth microdilution", "assay_type": "cell-based", "in_short": "(§1)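 Two-fold serial dilutions in DMSO tested in cation-adjusted Mueller Hinton broth per NCCLS M26-A, 5×10^5 c.f.u./mL inoculum, 1.25% final DMSO, duplicates.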"}, "[2]": {"test_system": "S. aureus ATCC 43300 (Fluoroquinolone sensitive MRSA)", "assay": "Antibacterial susceptibility (MIC), NCCLS broth microdilution", "assay_type": "cell-based", "in_short": "as §1"}, "[3]": {"test_system": "S. aureus BK85 (Fluoroquinolone resistant MRSA)", "assay": "Antibacterial susceptibility (MIC), NCCLS broth microdilution", "assay_type": "cell-based", "in_short": "as §1"}, "S. aureus RN4220": {"test_system": "S. aureus RN4220", "assay": "Antibacterial susceptibility (MIC), NCCLS broth microdilution", "assay_type": "cell-based", "settings": "CAMHB, 37° C., 18 h", "in_short": "as §1"}, "[4]": {"test_system": "S. aureus ATCC 13709 Novobiocin and Rifampicin resistant variant", "assay": "microbe, parasite or virus in culture", "assay_type": "cell-based", "in_short": "as §1"}, "S. aureus ATCC 13709 [5]": {"test_system": "S. aureus ATCC 13709", "assay": "Antibacterial susceptibility (MIC) in the presence of serum", "assay_type": "cell-based"}, "[6]": {"test_system": "E. coli LBB925 (tolC mutant)", "assay": "Antibacterial susceptibility (MIC), NCCLS broth microdilution", "assay_type": "cell-based", "settings": "tolC mutant"}, "[7]": {"assay": "Regeneration of drug from bone powder-bound prodrug", "assay_type": "in vitro ADME", "settings": "for % Conversion of bone-bound prodrug to parent drug: 24 h incubation, 37° C."}, "[8]": {"test_system": "S. aureus ATCC 13709 Novobiocin resistant mutant (bone infection)", "assay": "Prophylactic efficacy in rat model of S. aureus bone infection", "assay_type": "in vivo", "settings": "rat tibia 24 h postinfection; single dose 20 mg/kg parent drug equivalent, 3 days prior to infection", "method": "Specifically, a spontaneous Novobiocin resistant mutant strain of S. aureus ATCC 13709 (a clinical osteomyelitis isolate), was grown overnight at 37° C. in brain heart infusion broth (BHIB). After 16 h of growth, cells were subcultured into fresh BHIB and incubated for 4 to 5 h at 37° C. The cells were washed twice with phosphate-buffered saline (PBS) and resuspended in BHIB supplemented with 10% (vol./vol.) fetal bovine serum at a density of approximately 10^10 colony forming units (CFU)/ml (based upon turbidimetry). The suspension was aliquoted and a portion was used to check the CFU count. The culture was stored frozen (−80° C.) and was used without subculture. For use as an inoculum the culture was thawed, diluted in PBS and kept in an ice bath until it was used.\nAnimals were infected as described by O'Reilly et al. (Antimicrobial Agents and Chemotherapy (1992), 36(12): 2693-97) to generate the bone infection. Female CD rats (age, 57 to 70 days; n=5/group; Charles River, St-Constant, Canada) were anaesthetized by isofluorane before and during the surgery. Following complete induction of anesthesia, the rat was placed ventral side up and hair was shaved from the surgical site. The skin over the leg was cleaned and disinfected (proviodine-ethanol 70%). A longitudinal incision below the knee joint was made in the sagital plane. The incision was made over the bone below the “knee joint” (tibia head or condyle) but not completely extending to the ankle. A high speed drill fitted with a 2 mm bulb bit was used to drill a hole into the medullar cavity of the tibia. Rats were injected intra-tibially with 0.05 ml 5% sodium morrhuate (sclerosing agent) and then with 0.05 ml of S. aureus suspension (ca. 2×10^7 CFU/rat). The hole was sealed by applying a small amount of dry dental cement which immediately absorbs fluids and adheres to the site. The wound was closed using 3 metal skin clips. Moxifloxacin (as a positive control) was injected once at 10 mg/kg intravenously 1 h postinfection in saline, while the Rifamycin derived prodrugs (prepared in 0.9% saline) were injected at the dose indicated in Table 3 as a single intravenous bolus at different time points prior to the infection.\nInfected rats were sacrificed by CO2 asphyxiation 24 h postinfection to monitor the bacterial CFU count. Infected tibiae were removed, dissected free of soft tissue, and weighed. The bones were ground, resuspended in 5 ml 0.9% NaCl, serially diluted and processed for quantitative cultures. For compounds 50, 68 and 81, 1 ml of the 0.9% NaCl solution was added to 50 mg of charcoal before serial dilutions. Treatment efficacy was measured in terms of Log viable bacteria (Log CFU per gram of bone). […] The limit of detection is 2 Log CFU. […] Differences were considered significant when the P value was <0.05 when comparing treated infected animals to the untreated infected ones. The doses used, the amount of time separating the treatment from the time of infection and the treatment outcomes are shown in Table 3."}}, "data": [{"smiles": "CO[C@H]1/C=C/O[C@@]2(C)Oc3c(C)c(O)c4c(=O)c(c5oc6cc(N7CCC(OC(=O)CCC(=O)NC(P(=O)(O)O)P(=O)(O)O)CC7)cc(O)c6nc-5c4c3C2=O)NC(=O)/C(C)=C\\C=C\\[C@H](C)[C@H](O)[C@@H](C)[C@@H](O)[C@@H](C)[C@H](OC(C)=O)[C@@H]1C", "note": "[Compound 68]", "values": [{"measurement": "Minimum inhibitory concentration, S. aureus ATCC 13709", "setting": "S. aureus ATCC 13709 [1]", "result": 0.0625, "unit": "µg/mL"}, {"measurement": "Minimum inhibitory concentration, S. aureus ATCC 43300", "setting": "[2]", "result": 0.0625, "unit": "µg/mL"}, {"measurement": "Minimum inhibitory concentration, S. aureus BK85", "setting": "[3]", "result": 0.25, "unit": "µg/mL"}, {"measurement": "Minimum inhibitory concentration, S. aureus RN4220", "setting": "S. aureus RN4220", "result": 0.25, "unit": "µg/mL"}, {"measurement": "Activity against the Rifampicin resistant variant of S. aureus ATCC13709 (in words)", "setting": "[4]", "result": "complete lack of activity"}, {"measurement": "Minimum inhibitory concentration, S. aureus ATCC 13709 variant", "setting": "[4]; Novobiocin and Rifampicin resistant variant", "result": ">128", "unit": "µg/mL"}, {"measurement": "Minimum inhibitory concentration, S. aureus ATCC 13709 + 50% Human Serum", "setting": "S. aureus ATCC 13709 [5]; 50% Human Serum", "result": 1, "unit": "µg/mL"}, {"measurement": "Minimum inhibitory concentration, S. aureus ATCC 13709 + 50% Mouse Serum", "setting": "S. aureus ATCC 13709 [5]; 50% Mouse Serum", "result": 1, "unit": "µg/mL"}, {"measurement": "Minimum inhibitory concentration, S. aureus ATCC 13709 + 50% Rat Serum", "setting": "S. aureus ATCC 13709 [5]; 50% Rat Serum", "result": 2, "unit": "µg/mL"}, {"measurement": "Minimum inhibitory concentration, E. coli LBB925", "setting": "[6]", "result": 64, "unit": "µg/mL"}, {"measurement": "Regeneration of parent drug once bound to bone (in words)", "setting": "[7]", "result": "only slightly regenerates"}, {"measurement": "% Conversion of bone-bound prodrug to parent drug", "setting": "[7]; 50% Rat Serum", "result": 0.24, "unit": "%"}, {"measurement": "% Conversion of bone-bound prodrug to parent drug", "setting": "[7]; PBS", "result": 0.02, "unit": "%"}, {"measurement": "Impact of the medium on the rate of regeneration of parent drug (in words)", "setting": "[7]; serum compared to PBS", "result": "significant acceleration"}, {"measurement": "Measured bacterial titer", "setting": "[8]", "result": "4.86 ± 0.66 Log CFU/g of bone"}]}]}
